Assay results reported in patent publication EP1832576A1, “4-Biarylyl-1-phenolyzetidin-2-ones” (Microbia Inc., priority 2003, dated 2005).

System: cholesterol absorption from the intestine
Test: In Vivo Assay of Hypolipidemic Agents using the Rat Cholesterol Absorption Model
Design: species or system Female Sprague-Dawley rats
Conditions: po, 1 mg/kg, 3H levels in serum three hours after 3H-cholesterol, versus vehicle only control
Experimental: In Vivo Assay of Hypolipidemic Agents using the Rat Cholesterol Absorption Model. This model is based on models described by Burnett et al (2002), Bioorg. Med. Chem. Lett. 2002 Feb 11;12(3):315-8 and J. Lipid Res. 1999 Oct;40(10):1747-57. Female Sprague-Dawley rats weighing 150-250g are separated into […] and fasted overnight. The animals (4-6/group) are dosed perorally with 300µL test compounds in olive oil or suitable vehicle. Thirty minutes later, 3-5 microCuries ^3H-cholesterol per rat are delivered perorally in 300 µL olive oil. After three hours, 200 µL serum is collected, vortexed with scintillation fluid, and measured for radioactivity in a scintillation counter. Percent inhibition is defined as 100*(1-Ctest/Cctrl), where Ctest and Cctrl refer to ^3H levels in serum for the test compound and for the vehicle only control, respectively. Percent inhibition values are reported for a fixed dose. The ED50 is the dose at which the half-maximal effect on serum ^3H levels is observed for a given test compound.
Representative compounds of the invention were tested in the Rat Cholesterol Absorption model above.

| SMILES | inhibition at 1 mg/kg (Table 1, perorally) [%] | inhibition at 1 mg/kg (Table 2, perorally) [%] |
| --- | --- | --- |
| CCOc1cccc(-c2ccc([C@@H]3[C@@H](CC[C@H](O)c4ccc(F)cc4)C(=O)N3c3ccc(F)cc3)cc2)c1 [Example 100, (3R,4S)-4-(3'-ethoxybiphenyl-4-yl)-1-(4-fluorophenyl)-3-[(3S)-3-(4-fluorophenyl)-3-hydroxypropyl]azetidin-2-one] | 54 |  |
| O=C1[C@H](CC[C@H](O)c2ccc(F)cc2)[C@@H](c2ccc(-c3cccc(O[C@H]4O[C@@H](CO)[C@H](O)[C@@H](O)[C@@H]4O)c3)cc2)N1c1ccc(F)cc1 [Example 95, 4'-{(2S,3R)-1-(4-fluorophenyl)-3-[(3S)-3-(4-fluorophenyl)-3-hydroxypropyl]-4-oxoazetidin-2-yl}biphenyl-3-yl β-L-glucopyranoside] | 57 |  |
| O=C1[C@H](CC[C@H](O)c2ccc(F)cc2)[C@@H](c2ccc(-c3ccccc3O)cc2)N1c1ccc(F)cc1 [Example 7, (3R,4S)-1-(4-fluorophenyl)-3-[(3S)-3-(4-fluorophenyl)-3-hydroxypropyl]-4-(2'-hydroxybiphenyl-4-yl)azetidin-2-one] | 30 |  |
| O=C1[C@H](CC[C@H](O)c2ccc(F)cc2)[C@@H](c2ccc(-c3ccc(P(=O)(O)O)cc3)cc2O)N1c1ccccc1 [Example 127, (4'-{(2S,3R)-3-[(3S)-3-(4-Fluorophenyl)-3-hydroxypropyl]-4-oxo-1-phenylazetidin-2-yl}-3'-hydroxybiphenyl-4-yl)phosphonic acid] |  | 58 |
| CN(C)c1cccc(-c2ccc([C@@H]3[C@@H](CC[C@H](O)c4ccc(F)cc4)C(=O)N3c3ccc(F)cc3)cc2)c1 [Example 83, (3R,4S)-4-[3'-(dimethylamino)biphenyl-4-yl]-1-(4-fluorophenyl)-3-[(3 S)-3-(4-fluorophenyl)-3-hydroxypropyl]azetidin-2-one] | 38 |  |
| CCCCOc1cccc(-c2ccc([C@@H]3[C@@H](CC[C@H](O)c4ccc(F)cc4)C(=O)N3c3ccc(F)cc3)cc2)c1 [Example 109, (3R,4S)-4-(3'-butoxybiphenyl-4-yl)-1-(4-fluorophenyl)-3-[(3S)-3-(4-fluorophenyl)-3-hydroxypropyl]azetidin-2-one] | 52 |  |
| O=C1[C@H](CC[C@H](O)c2ccc(F)cc2)[C@@H](c2ccc(-c3cccc(O)c3)cc2)N1c1ccc(F)cc1 [Example 4, (3R,4S)-1-(4-Fluorophenyl)-3-[(3S)-3-(4-fluorophenyl)-3-hydroxypropyl]-4-(3'-hydroxybiphenyl-4-yl)azetidin-2-one] | 72 |  |
| O=C1[C@H](CC[C@H](O)c2ccc(F)cc2)[C@@H](c2ccc(-c3cccc(S)c3)cc2)N1c1ccc(F)cc1 [Example 119, (3R,4S)-1-(4-fluorophenyl)-3-[(3S)-3-(4-fluorophenyl)-3-hydroxypropyl]-4-(3'-mercaptobiphenyl-4-yl)azetidin-2-one] | 56 |  |
| O=C1[C@H](CC[C@H](O)c2ccc(F)cc2)[C@@H](c2ccc(-c3ccc4ccccc4c3)cc2)N1c1ccc(F)cc1 [Example 91, (3R,4S)-1-(4-fluorophenyl)-3-[(3S)-3-(4-fluorophenyl)-3-hydroxypropyl]-4-[4-(2-naphthyl)phenyl]azetidin-2-one] | 56 |  |
| Cc1cc(C)cc(-c2ccc([C@@H]3[C@@H](CC[C@H](O)c4ccc(F)cc4)C(=O)N3c3ccc(F)cc3)cc2)c1 [Example 90, (3R,4S)-4-(3',5'-dimethylbiphenyl-4-yl)-1-(4-fluorophenyl)-3-[(3S)-3-(4-fluorophenyl)-3-hydroxypropyl]azetidin-2-one] | 27 |  |
| O=C1[C@H](CC[C@H](O)c2ccc(F)cc2)[C@@H](c2ccc(-c3cccc(S(=O)(=O)O)c3)cc2)N1c1ccc(F)cc1 [Example 118, 4'-{(2S,3R)-1-(4-fluorophenyl)-3-[(3S)-3-(4-fluorophenyl)-3-hydroxypropyl]-4-oxoazetidin-2-yl}biphenyl-3-sulfonic acid] | 61 |  |
